Measurements reported in patent US7423054B2, “Therapeutic pyrazolo[3,4-b]pyridines and indazoles” (Warner Lambert Company LLC, priority 2004, dated 2008).
Where a name gives a salt, the structure may show the parent alone.

Key:
[1] = biological target: T1, human serotonin transporter (hSERT) (Homo sapiens, UniProt P31645); experiment: hSERT receptor binding ([125I]-RTI-55 displacement, membranes of transfected HEK-293 cells); details: HEK-293 membranes, Ki from IC50 by Cheng-Prusoff, read-out: SERT Ki
T1 construct: expressed in transfected cells; host or cells: HEK-293 cells (membrane preparation)
T1 sequence (P31645 whole entry): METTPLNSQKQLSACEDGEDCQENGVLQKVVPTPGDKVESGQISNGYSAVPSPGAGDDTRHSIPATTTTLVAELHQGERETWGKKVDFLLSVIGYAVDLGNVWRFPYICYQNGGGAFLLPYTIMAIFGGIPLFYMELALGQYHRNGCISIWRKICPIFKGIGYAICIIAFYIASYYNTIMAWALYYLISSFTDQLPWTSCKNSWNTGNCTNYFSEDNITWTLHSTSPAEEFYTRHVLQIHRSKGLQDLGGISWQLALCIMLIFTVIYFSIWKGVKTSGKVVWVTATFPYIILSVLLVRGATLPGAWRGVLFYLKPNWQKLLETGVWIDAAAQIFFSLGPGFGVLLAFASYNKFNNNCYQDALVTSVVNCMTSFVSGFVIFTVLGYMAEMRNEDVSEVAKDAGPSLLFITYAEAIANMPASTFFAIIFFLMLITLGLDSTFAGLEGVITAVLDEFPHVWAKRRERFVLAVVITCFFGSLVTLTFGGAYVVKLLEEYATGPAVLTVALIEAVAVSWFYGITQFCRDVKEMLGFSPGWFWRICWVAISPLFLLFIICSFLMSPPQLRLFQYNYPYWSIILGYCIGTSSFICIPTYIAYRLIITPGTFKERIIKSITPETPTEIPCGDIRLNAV
Description: (§1) The ability of the compounds of the present invention to inhibit a norepinephrine transporter and/or a serotonin transporter can be determined using conventional radioligand receptor transport assays. The receptors can be heterologously expressed in cell lines and experiments conducted in membrane preparations from the cell lines that express a norepinephrine transporter and/or a serotonin transporter.
(§2) Cell pastes of HEK-293 cells transfected with a human serotonin transporter cDNA were prepared. The cell pastes were resuspended in 400 to 700 ml of Krebs-HEPES assay buffer (25 mM HEPES, 122 mM NaCl, 3 mM KCl, 1.2 mM MgSO4, 1.3 mM CaCl2, and 11 mM glucose, pH 7.4) with a Polytron homogenizer at Setting 7 for 30 seconds. Aliquots of membranes (˜2.5 mg/ml protein) were stored in liquid nitrogen until used.
Assays were set up in FlashPlates pre-coated with 0.1% PEI in a total volume of 250 μl containing: test compound (10^−5M to 10^−12M), cell membranes, and 50 pM [^125I]-RTI-55 (Perkin Elmer, NEX-272; specific activity 2200 Ci/mmol). The reaction was incubated and gently agitated for 90 minutes at room temperature, and terminated by removal of assay volume. Plates were covered, and bound [^125I]-RTI-55 was determined using a Wallac Trilux Beta Plate Counter. Test compounds were run in duplicate, and specific binding was defined as the difference between binding in the presence and absence of 10 μM citalopram.
Excel and GraphPad Prism software were used for data calculation and analysis. IC50 values were converted to Ki values using the Cheng-Prusoff equation. The Ki values (nM) for the hSERT are reported below in Table 11: […]

[2] = biological target: T2, human norepinephrine transporter (hNET) (Homo sapiens, UniProt P23975); experiment: hNET receptor binding ([125I]-RTI-55 displacement, membranes of transfected HEK-293 cells); details: HEK-293 membranes, Ki from IC50 by Cheng-Prusoff, read-out: NET Ki
T2 construct: expressed in transfected cells; host or cells: HEK-293 cells (membrane preparation)
T2 sequence (P23975 whole entry): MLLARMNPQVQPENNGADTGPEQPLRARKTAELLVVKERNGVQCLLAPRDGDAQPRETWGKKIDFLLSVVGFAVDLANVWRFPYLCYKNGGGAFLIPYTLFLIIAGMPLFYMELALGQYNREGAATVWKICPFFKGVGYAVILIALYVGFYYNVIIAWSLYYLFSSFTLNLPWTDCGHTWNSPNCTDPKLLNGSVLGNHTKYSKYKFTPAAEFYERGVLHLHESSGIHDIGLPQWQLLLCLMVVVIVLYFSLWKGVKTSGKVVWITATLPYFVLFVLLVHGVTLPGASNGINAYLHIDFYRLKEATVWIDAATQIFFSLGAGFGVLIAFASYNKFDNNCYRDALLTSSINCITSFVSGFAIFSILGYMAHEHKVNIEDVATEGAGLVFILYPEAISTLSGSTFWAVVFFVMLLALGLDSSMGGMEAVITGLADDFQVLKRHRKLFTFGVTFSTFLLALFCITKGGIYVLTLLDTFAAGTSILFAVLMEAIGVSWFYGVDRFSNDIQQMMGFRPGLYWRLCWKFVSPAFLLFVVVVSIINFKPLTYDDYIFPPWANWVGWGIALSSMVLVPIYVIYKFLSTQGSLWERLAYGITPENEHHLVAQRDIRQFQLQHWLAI
Text: as §1
as §2, with “norepinephrine” for “serotonin”, “setting” for “Setting”, “(5” for “(˜2.5”
The binding assay was set up in Beckman deep-well polypropylene plates with a total volume of 250 μl containing: test compound (10^−5M to 10^−12M), cell membranes, and 50 pM [^125I]-RTI-55 (Perkin Elmer, NEX-272; specific activity 2200 Ci/mmol). The reaction was incubated by gentle agitation for 90 minutes at room temperature and was terminated by filtration through Whatman GF/C filter plates using a Brandel 96-well plate harvester. Scintillation fluid (100 μl) was added to each well, and bound [^125I]-RTI-55 was determined using a Wallac Trilux Beta Plate Counter. Test compounds were run in duplicate, and specific binding was defined as the difference between binding in the presence and absence of 10 μM desipramine.
Excel and GraphPad Prism software were used for data calculation and analysis. IC50 values were converted to Ki values using the Cheng-Prusoff equation. The Ki values (nM) for the hNET are reported below in Table 11.

Compound	Ki [1] [µM]	Ki [2] [µM]
Fc1cccc(-n2nc(OC3CCNCC3)c3c(F)cccc32)c1 [Example 81, 4-Fluoro-1(3-fluoro-phenyl)-3-(piperidin-4-yloxy)-1H-indazole hydrochloride]	0.449	0.0498
Fc1cccc(-n2nc(OC[C@H]3CCCNC3)c3c(F)cccc32)c1 [Example 82, (S)-4-Fluoro-1-(3-fluoro-phenyl)-3-(piperidin-3-ylmethoxy)-1H-indazole hydrochloride]	0.635	0.0232
Fc1ccc(-n2nc(OC3CCNCC3)c3c(F)cccc32)cc1 [Example 83, 4-Fluoro-1-(4-fluoro-phenyl)-3-(piperidin-4-yloxy)-1H-indazole hydrochloride]	0.191	0.0493
Fc1ccccc1-n1nc(OC[C@H]2CCCNC2)c2c(F)cccc21 [Example 85, (S)-4-Fluoro-1-(2-fluoro-phenyl)-3-(piperidin-3-ylmethoxy)-1H-indazole hydrochloride]	1.01	0.0125
Fc1ccc(-n2nc(OC3CCNCC3)c3c(F)cccc32)c(F)c1 [Example 88, 1-(2,4-Difluoro-phenyl)-4-fluoro-3-(piperidin-4-yloxy)-1H-indazole hydrochloride]	0.0881	0.0163
Fc1ccc(-n2nc(OC[C@H]3CCCNC3)c3c(F)cccc32)c(F)c1 [Example 89, (S)-1-(2,4-Difluoro-phenyl)-4-fluoro-3-(piperidin-3-ylmethoxy)-1H-indazole hydrochloride]	0.403	0.0224
Fc1ccc(-n2nc(OC[C@@H]3CCNC3)c3c(F)cccc32)c(F)c1 [Example 92, (R)-1-(2,4-Difluoro-phenyl)-4-fluoro-3-(pyrrolidin-3-ylmethoxy)-1H-indazole hydrochloride]	0.126	0.0285
Fc1ccc(F)c(-n2nc(OC[C@@H]3CCNC3)c3c(F)cccc32)c1 [Example 93, (R)-1-(2,5-Difluoro-phenyl)-4-fluoro-3-(pyrrolidin-3-ylmethoxy)-1H-indazole hydrochloride]	0.225	0.0164
Fc1ccc(F)c(-n2nc(OC[C@@H]3CNCCO3)c3c(F)cccc32)c1 [Example 95, (S)-1-(2,5-Difluoro-phenyl)-4-fluoro-3-(morpholin-2-ylmethoxy)-1H-indazole hydrochloride]	3.47	0.00547
Fc1ccccc1-n1nc(OC[C@@H]2CNCCO2)c2c(F)cccc21 [Example 98, (S)-(+)-4-Fluoro-1-(2-fluorophenyl)-3-(morpholin-2-ylmethoxy)-1H-indazole maleate]	3.86	0.0273
Fc1ccc2c(c1)c(OCC1CCCNC1)nn2-c1ccccn1 (centres unmarked) [Example 99, 5-Fluoro-3-(piperidin-3-ylmethoxy)-1-pyridin-2-yl-1H-indazole hydrochloride]	0.259	0.319
Clc1ccc2c(c1)c(OC1CCNCC1)nn2-c1ccccc1 [Example 101, 5-Chloro-1-phenyl-3-(piperidin-4-yloxy)-1H-indazole hydrochloride]	0.304	0.607
Fc1ccccc1-n1nc(OC2CCNCC2)c2cc(Cl)ccc21 [Example 102, 5-Chloro-1-(2-fluoro-phenyl)-3-(piperidin-4-yloxy)-1H-indazole hydrochloride]	0.129	0.0715
c1ccc(-n2nc(OC[C@H]3CCCNC3)c3cccnc32)cc1 [Example 104, (S)-(−)-1-Phenyl-3-(piperidin-3-ylmethoxy)-1H-pyrazolo[3,4-b]pyridine hydrochloride]	1.58	0.089
Fc1cccc(F)c1-n1nc(OC[C@H]2CCCNC2)c2c(F)cccc21 [Example 110, (S)-1-(2,6-Difluorophenyl)-4-fluoro-3-(piperidin-3-ylmethoxy)-1H-indazole hydrochloride]	0.422	0.0163
(S)-1-(2,6-Difluoro-phenyl)-3-(morpholin-2-ylmethoxy)-1H-indazole hydrochloride [Example 24]	5.43	0.00965
(S)-(−)-5-Fluoro-1-(2-fluorophenyl)-3-(piperidin-3-ylmethoxy)-1H-indazole hydrochloride [Example 47]	0.047	0.013

Now from value to compound:

Ki [1] [µM]	Ki [2] [µM]	Compound
0.487	0.0381	Fc1ccc(-n2nc(OC[C@H]3CCCNC3)c3c(F)cccc32)cc1 [Example 84, (S)-4-Fluoro-1-(4-fluoro-phenyl)-3-(piperidin-3-ylmethoxy)-1H-indazole hydrochloride]
0.101	0.114	Fc1cc2c(OCC3CCCNC3)nn(-c3ccccc3)c2cc1F (centres unmarked) [Example 86, 5,6-Difluoro-1-phenyl-3-(piperidin-3-ylmethoxy)-1H-indazole hydrochloride]
0.057	0.197	Fc1cc2c(OC3CCNCC3)nn(-c3ccccc3)c2cc1F [Example 87, 5,6-Difluoro-1-phenyl-3-(piperidin-4-yloxy)-1H-indazole hydrochloride]
0.142	0.0102	Fc1ccc(F)c(-n2nc(OC3CCNCC3)c3c(F)cccc32)c1 [Example 90, 1-(2,5-Difluoro-phenyl)-4-fluoro-3-(piperidin-4-yloxy)-1H-indazole hydrochloride]
0.61	0.00788	Fc1ccc(F)c(-n2nc(OC[C@H]3CCCNC3)c3c(F)cccc32)c1 [Example 91, (S)-1-(2,5-Difluoro-phenyl)-4-fluoro-3-(piperidin-3-ylmethoxy)-1H-indazole hydrochloride]
2.85	0.0402	Fc1ccc(-n2nc(OC[C@@H]3CNCCO3)c3c(F)cccc32)c(F)c1 [Example 94, (S)-1-(2,4-Difluoro-phenyl)-4-fluoro-3-(morpholin-2-ylmethoxy)-1H-indazole hydrochloride]
0.0395	0.0285	Fc1ccc2c(c1)c(OC1CCNCC1)nn2-c1ccc(F)c(F)c1 [Example 97, 1-(3,4-Difluoro-phenyl)-5-fluoro-3-(piperidin-4-yloxy)-1H-indazole hydrochloride]
0.293	0.0341	Fc1cccc2c1c(OC1CCNCC1)nn2-c1ccccc1 [Example 103, 4-Fluoro-1-phenyl-3-(piperidin-4-yloxy)-1H-indazole hydrochloride]
4.24	0.294	c1ccc(-n2nc(OC[C@@H]3CNCCO3)c3cccnc32)cc1 [Example 105, (S)-(+)-3-(Morpholin-2-ylmethoxy)-1-phenyl-1H-pyrazolo[3,4-b]pyridine hydrochloride]
0.043	0.00572	Fc1ccc2c(c1)c(OC1CCNCC1)nn2-c1c(F)cccc1F [Example 108, 1-(2,6-Difluoro-phenyl)-5-fluoro-3-(piperidin-4-yloxy)-1H-indazole hydrochloride]
0.279	0.0462	Fc1cccc(F)c1-n1nc(OC2CCNCC2)c2c(F)cccc21 [Example 109, 1-(2,6-Difluoro-phenyl)-4-fluoro-3-(piperidin-4-yloxy)-1H-indazole hydrochloride]
